Where two headings read alike, the source gives them in different places.
Tests used:
[1] = set-up: method as in PMID 32816246; settings: single oral 180 mg [14C]-brigatinib; cited from earlier work
[2] = Plasma protein binding of brigatinib by rapid equilibrium dialysis of participants' plasma samples; assay type: in vitro ADME, human; settings: for fraction unbound: human, plasma, oral, 90 mg, pooled 2, 8, 24 h postdose
Description: (§1) Blood samples were collected before brigatinib administration (predose) and at 0.5, 1, 1.5, 2, 2.5, 3, 4, 6, 8, 12, 24, 36, 48, 72, 96, 120, 144, 168, and 192 hours following brigatinib administration to measure brigatinib plasma concentrations. Samples to assess brigatinib plasma protein binding were collected at 2, 8, and 24 hours postdose.
Free fractions of brigatinib in plasma samples were determined as previously reported. Briefly, free brigatinib was separated from protein-bound brigatinib by rapid equilibrium dialysis of plasma samples against warm (37° C) phosphate-buffered saline using the Thermo Scientific Single-Use Rapid Equilibrium Dialysis kit (Thermo Fisher Scientific, Waltham, MA) according to the manufacturer’s specifications. […] After incubation, samples were analyzed for brigatinib concentrations using liquid chromatography with tandem mass spectrometry as previously reported using a dual-range assay with a lower limit of quantitation of 0.100 ng/mL and an upper limit of quantitation of […].
(§2) The PK-evaluable population was defined as participants who received the single dose of brigatinib, had no major protocol deviations that affected the PK analyses, and had sufficient data to calculate PK parameters. Individual participant brigatinib plasma concentration-time profiles were analyzed via noncompartmental analysis using Phoenix WinNonLin version 6.4 (Certara, Inc., Princeton, NJ) to calculate plasma PK parameters. Plasma PK parameters calculated for brigatinib included maximum observed plasma concentration (Cmax), time to first maximum observed plasma concentration (Tmax), area under the plasma concentration-time curve from time 0 to the time of the last measurable concentration (AUC0−last), area under the plasma concentration-time curve from time 0 to infinity (AUC0−∞), terminal elimination half-life (t1/2), apparent oral clearance (CL/F), and apparent volume of distribution during the terminal disposition phase (Vz/F). The fraction of unbound brigatinib in plasma was calculated using the following formula: % free (unbound) = [free brigatinib concentration measured in buffer after dialysis] / [total brigatinib concentration measured in plasma] × 100. Unbound brigatinib PK parameters were derived from the following formula (except for the unbound CL/F and unbound Vz/F, which were calculated as total CL/F or total Vz/F divided by the individual participant’s overall mean fraction unbound): unbound PK parameter = (PK parameter based on total concentrations) × (individual participant’s overall mean fraction unbound value).

[3] = Single oral 90-mg dose plasma PK in participants with chronic hepatic impairment and matched healthy participants; assay type: in vivo, human; settings: for Tmax / half-life / AUC(0-t) / AUC(0-inf): human, plasma, po, 90 mg; for Tmax / half-life / AUC(0-t) / AUC(0-inf) / Tmax, median (range) / CL/Fu, unbound apparent oral clearance, geometric mean (geometric %CV) / Vz/Fu, unbound apparent volume of distribution, geometric mean (geometric %CV) / Cmax,u, geometric mean (geometric %CV): single oral 90 mg; for Tmax / Tmax, median (range): fasted; for Tmax: read-out: Tmax, median (range); for half-life: read-out: t1/2, terminal elimination half-life, geometric mean (geometric %CV) (converted); for AUC(0-t) / AUC(0-inf) / Cmax,u, geometric mean (geometric %CV): unbound; for AUC(0-t): read-out: AUC0−last,u, geometric mean (geometric %CV); for AUC(0-inf): read-out: AUC0−∞,u, geometric mean (geometric %CV)
Description: This open-label, parallel-group, inpatient, nonrandomized study was performed at 1 clinical study site, the Orlando Clinical Research Center (Orlando, FL, USA), and evaluated the PK of brigatinib after administration of a single oral 90-mg dose in participants with chronic hepatic impairment and in healthy participants with normal hepatic function. The study consisted of a screening period of up to 22 days and a single treatment and assessment period that included a 10-day (9-night) inpatient stay (Day −1 to Day 9). On the morning of Day 1, each participant received a single oral dose of 90 mg brigatinib under fasting conditions with approximately 240 mL of water. Fasting was required for approximately 10 hours before study drug dosing, for approximately 4 hours postdose, and for at least 8 hours before clinical laboratory tests. Meals were standardized for all participants. Water was permitted ad libitum except for the period between approximately 1 hour before and 1 hour after dosing. Participants remained in the clinic through 192 hours postdose for PK sample collection and were discharged from the clinical research site on Day 9.
as §1
Plasma samples were analyzed for brigatinib concentrations using a previously reported dual-range assay with a lower limit of quantitation of 0.100 ng/mL and an upper limit of quantitation of 2500 ng/mL [14].
as §2
Descriptive statistics, including mean, standard deviation (SD), percent coefficient of variation (%CV), and median, minimum, and maximum values, were calculated for each time point for plasma brigatinib concentrations for the healthy participant and each Child-Pugh group. Arithmetic means, SD, %CV, median, minimum, and maximum values, and the number of observations were calculated for the PK parameters. Geometric mean and geometric %CV were derived for all parameters, except Tmax, which was reported as median (minimum–maximum). Statistical comparisons of unbound brigatinib PK parameters were made among the hepatic function groups (ie, healthy participants, Child-Pugh classes A, B, and C) using an analysis of variance. […]

CYP2C8 = tested on: CYP2C8; set-up: method as in PMID 31287236; settings: cited from earlier work
[4] = tested on: ALK-positive metastatic NSCLC; set-up: method as in PMID 36065449; settings: 180 mg QD with 7-day lead-in at 90 mg QD; median follow-up 28.3 months; cited from earlier work
CYP3A = tested on: CYP3A; set-up: method as in PMID 31287236; settings: cited from earlier work
[5] = mild (Child-Pugh A) vs normal hepatic function
[6] = moderate (Child-Pugh B) vs normal hepatic function
[7] = severe (Child-Pugh C) vs normal hepatic function

**Q.** Which results are given for `COc1cc(N2CCC(N3CCN(C)CC3)CC2)ccc1Nc1ncc(Cl)c(Nc2ccccc2P(C)(C)=O)n1` [brigatinib]?
**A.** administered dose recovered in the feces [1]: approximately 65%; administered dose recovered in the urine [1]: 25%; fecal recovery as unchanged brigatinib [1]: 41%; urinary recovery as unchanged brigatinib [1]: 86%; concentration dependence of plasma protein binding ([2]; 2, 8 and 24 h postdose within each hepatic function group): not concentration-dependent; mean fraction unbound, Child-Pugh C relative to healthy participants ([2]; Child-Pugh C vs healthy participants): 2.7 fold; fraction unbound ([2]; Child-Pugh A, mild hepatic impairment (n=6), read-out: mean fraction unbound (free) in plasma): 0.111; fraction unbound ([2]; Child-Pugh A, read-out: pooled mean ± SD fraction unbound (converted)): 0.111; fraction unbound ([2]; Child-Pugh B, moderate hepatic impairment (n=6), read-out: mean fraction unbound (free) in plasma): 0.108; fraction unbound ([2]; Child-Pugh B, read-out: pooled mean ± SD fraction unbound (converted)): 0.108; fraction unbound ([2]; Child-Pugh C, severe hepatic impairment (n=6), read-out: mean fraction unbound (free) in plasma): 0.231; fraction unbound ([2]; Child-Pugh C, read-out: pooled mean ± SD fraction unbound (converted)): 0.231; fraction unbound ([2]; healthy participants, normal hepatic function (n=9), read-out: mean fraction unbound (free) in plasma): 0.085; fraction unbound ([2]; healthy participants, read-out: pooled mean ± SD fraction unbound (converted)): 0.085; geometric mean AUC0−last,u higher than in healthy participants ([3]; Child-Pugh C vs healthy participants with normal hepatic function): 34%; Tmax ([3]; mild (Child-Pugh A) hepatic impairment (n=6)): 1.75 h; Tmax ([3]; severe (Child-Pugh C) hepatic impairment (n=6)): 0.5 h; half-life ([3]; mild (Child-Pugh A) (n=6)): 47 h; half-life ([3]; moderate (Child-Pugh B) (n=6)): 48.7 h; half-life ([3]; normal hepatic function (n=9)): 47.6 h; half-life ([3]; severe (Child-Pugh C) (n=6)): 51 h; AUC(0-t) ([3]; mild (Child-Pugh A) (n=6)): 522 ng·h/mL; AUC(0-inf) ([3]; mild (Child-Pugh A) (n=6)): 539 ng·h/mL; AUC(0-t) ([3]; moderate (Child-Pugh B) (n=6)): 578 ng·h/mL; AUC(0-inf) ([3]; moderate (Child-Pugh B) (n=6)): 601 ng·h/mL; AUC(0-t) ([3]; normal hepatic function (n=9)): 581 ng·h/mL; AUC(0-inf) ([3]; normal hepatic function (n=9)): 603 ng·h/mL; AUC(0-t) ([3]; severe (Child-Pugh C) (n=6)): 781 ng·h/mL; AUC(0-inf) ([3]; severe (Child-Pugh C) (n=6)): 829 ng·h/mL; AUC0−last,u geometric LSM ratio (90% CI) [3, 5]: 89.77 (70.37–114.52) %; AUC0−∞,u geometric LSM ratio (90% CI) [3, 5]: 89.32 (69.79–114.31) %; Cmax,u geometric LSM ratio (90% CI) [3, 5]: 94.75 (75.36–119.12) %; AUC0−last,u geometric LSM ratio (90% CI) [3, 6]: 99.41 (77.93–126.82) %; AUC0−∞,u geometric LSM ratio (90% CI) [3, 6]: 99.55 (77.78–127.41) %; Cmax,u geometric LSM ratio (90% CI) [3, 6]: 92.01 (73.18–115.68) %; AUC0−last,u geometric LSM ratio (90% CI) [3, 7]: 134.38 (105.34–171.43) %; AUC0−∞,u geometric LSM ratio (90% CI) [3, 7]: 137.41 (107.37–175.86) %; Cmax,u geometric LSM ratio (90% CI) [3, 7]: 165.26 (131.44–207.78) %; Tmax, median (range) ([3]; moderate (Child-Pugh B) hepatic impairment (n=6)): 2.00 (0.50‒3.00) h; Tmax, median (range) ([3]; normal hepatic function (n=9)): 2.00 (1.00‒6.00) h; CL/Fu, unbound apparent oral clearance, geometric mean (geometric %CV) ([3]; mild (Child-Pugh A) (n=6)): 167 (24.9) L/h; Vz/Fu, unbound apparent volume of distribution, geometric mean (geometric %CV) ([3]; mild (Child-Pugh A) (n=6)): 11,300 (45.8) L; CL/Fu, unbound apparent oral clearance, geometric mean (geometric %CV) ([3]; moderate (Child-Pugh B) (n=6)): 150 (39.8) L/h; Vz/Fu, unbound apparent volume of distribution, geometric mean (geometric %CV) ([3]; moderate (Child-Pugh B) (n=6)): 10,500 (29.5) L; CL/Fu, unbound apparent oral clearance, geometric mean (geometric %CV) ([3]; normal hepatic function (n=9)): 149 (25.0) L/h; Vz/Fu, unbound apparent volume of distribution, geometric mean (geometric %CV) ([3]; normal hepatic function (n=9)): 10,200 (31.0) L; CL/Fu, unbound apparent oral clearance, geometric mean (geometric %CV) ([3]; severe (Child-Pugh C) (n=6)): 109 (20.0) L/h; Vz/Fu, unbound apparent volume of distribution, geometric mean (geometric %CV) ([3]; severe (Child-Pugh C) (n=6)): 7,990 (33.2) L; Cmax,u, geometric mean (geometric %CV) ([3]; mild (Child-Pugh A) (n=6)): 28.7 (9.5) ng/mL; Cmax,u, geometric mean (geometric %CV) ([3]; moderate (Child-Pugh B) (n=6)): 27.8 (24.8) ng/mL; Cmax,u, geometric mean (geometric %CV) ([3]; normal hepatic function (n=9)): 30.3 (27.2) ng/mL; Cmax,u, geometric mean (geometric %CV) ([3]; severe (Child-Pugh C) (n=6)): 50.0 (34.5) ng/mL; effect of a strong CYP2C8 inhibitor on brigatinib systemic exposure (CYP2C8): no clinically relevant effect; IRC-assessed confirmed objective response rate (ORR) [4]: 56%; IRC-assessed median progression-free survival (PFS) [4]: 16.7 months; decrease of AUC0−∞ with the strong CYP3A inducer rifampicin (CYP3A): 80%; increase of AUC0−∞ with the strong CYP3A inhibitor itraconazole (CYP3A): 101%

— article PMC10289985, “Brigatinib pharmacokinetics in patients with chronic hepatic impairment” (Investigational New Drugs, 2023)
